Structures are written as SMILES. Where two headings read alike, the source gives them in different places.

This test addresses WDR5 (Homo sapiens (Human), UniProt P61964). The experiment in a line: TR-FRET binding assay (displacement of 10mer-Thr-FAM probe from WDR5). In general terms: In TR-FRET formats the signal depends on donor and acceptor labels being close together.
[1] abbreviates: read-out: Ki for Inhibition of WDR5 by TR-FRET assay, TR-FRET, 10mer-Thr-FAM probe, WDR5-His tag 2 nM, pH 7.0.
[2] abbreviates: read-out: Ki for Inhibition of WDR5 by TR-FRET assay.

Usually Ki stands for the equilibrium dissociation constant of an inhibitor or competing ligand from its target. Take `Cn1ccn(Cc2cc(C(=O)N[C@@H](CC(=O)O)c3cccc(C(F)(F)F)c3)c(F)c(-c3ccc(F)cc3C(F)(F)F)c2)c1=N` [Example 148, (S)-3-(2,4′-Difluoro-5-((2-imino-3-methyl-2,3-dihydro-1H-imidazol-1-yl)methyl)-2′-(trifluoromethyl)-[1,1′-biphenyl]-3-carboxamido)-3-(3-(trifluoromethyl)phenyl)propanoic acid]: under setting [1], the Ki came out at 290 pM. Same read-out and setting: as for `Cc1ccnc([C@@H](NC(=O)c2cc(Cn3ccn(C)c3=N)cc(OC(F)(F)F)c2)C2CC2)c1` [Example 149, (S)—N-(Cyclopropyl(4-methylpyridin-2-yl)methyl)-3-((2-imino-3-methyl-2,3-dihydro-1H-imidazol-1-yl)methyl)-5-(trifluoromethoxy)benzamide], the figure is 560 pM.

On to `Cn1ccn(Cc2cc(C(=O)N[C@H](c3ccc(Cl)c(Cl)c3)C3CC3)cc(-c3ccc(F)cc3OC(F)F)c2)c1=N` [Example 150, (S)—N-(Cyclopropyl(3,4-dichlorophenyl)methyl)-2′-(difluoromethoxy)-4′-fluoro-5-((2-imino-3-methyl-2,3-dihydro-1H-imidazol-1-yl)methyl)-[1,1′-biphenyl]-3-carboxamide], for which, under setting [1], the Ki was found to be 130 pM.

`N=c1n(Cc2cc(C(=O)N[C@H](c3ccc(Cl)c(Cl)c3)C3CC3)cc(-c3ccc(F)cc3OC(F)F)c2)ccn1C1CC1` [Example 151, (S)—N-(Cyclopropyl(3,4-dichlorophenyl)methyl)-5-((3-cyclopropyl-2-imino-2,3-dihydro-1H-imidazol-1-yl)methyl)-2′-(difluoromethoxy)-4′-fluoro-[1,1′-biphenyl]-3-carboxamide]: the Ki under setting [1] was found to be 590 pM. `COc1cc(CNC(=O)c2cc(Cn3ccn(C)c3=N)cc(-c3ccc(F)cc3C(N)=O)c2)cc(OC)c1` [Example 152, N3′-(3,5-dimethoxybenzyl)-4-fluoro-5′-((2-imino-3-methyl-2,3-dihydro-1H-imidazol-1-yl)methyl)-[1,1′-biphenyl]-2,3′-dicarboxamide] displayed an inhibition constant (Ki) of 8900 pM. As for `Cn1ccn(Cc2cc(C(=O)N[C@H](c3ccc(Cl)c(Cl)c3)C3CC3)cc(-c3cccnc3C(F)(F)F)c2)c1=N` [Example 153, (S)—N-(Cyclopropyl(3,4-dichlorophenyl)methyl)-3-((2-imino-3-methyl-2,3-dihydro-1H-imidazol-1-yl)methyl)-5-(2-(trifluoromethyl)pyridin-3-yl)benzamide], the Ki under setting [1] is 330 pM. As for `N=c1n(Cc2cc(C(=O)N[C@H](c3ccc(Cl)c(Cl)c3)C3CC3)cc(-c3cccnc3C(F)(F)F)c2)ccn1C1CC1` [Example 155, (S)—N-(Cyclopropyl(3,4-dichlorophenyl)methyl)-3-((3-cyclopropyl-2-imino-2,3-dihydro-1H-imidazol-1-yl)methyl)-5-(2-(trifluoromethyl)pyridin-3-yl)benzamide], the Ki under setting [1] was 1400 pM. Same read-out and setting: as for `Cc1cc([C@@H](NC(=O)c2cc(Cn3ccn(C4CC4)c3=N)cc(-c3cn(CC(C)C)nc3C(F)(F)F)c2)C2CC2)ccc1F` [Example 163, (S)—N-(Cyclopropyl(4-fluoro-3-methylphenyl)methyl)-3-((3-cyclopropyl-2-imino-2,3-dihydro-1H-imidazol-1-yl)methyl)-5-(1-isobutyl-3-(trifluoromethyl)-1H-pyrazol-4-yl)benzamide], the figure is 680 pM; as for `Cc1cc([C@@H](NC(=O)c2cc(Cn3ccn(C)c3=N)cc(-c3cn(CC(C)C)nc3C(F)(F)F)c2)C2CC2)ccc1F` [Example 165, (S)—N-(Cyclopropyl(4-fluoro-3-methylphenyl)methyl)-3-((2-imino-3-methyl-2,3-dihydro-1H-imidazol-1-yl)methyl)-5-(1-isobutyl-3-(trifluoromethyl)-1H-pyrazol-4-yl)benzamide], 140 pM; as for `Cc1cc(F)ccc1-c1cc(Cn2ccn(C)c2=N)cc(C(=O)N[C@@H](c2ccc(F)c(C)n2)C2CC2)c1` [Example 167, (R)—N-(Cyclopropyl(5-fluoro-6-methylpyridin-2-yl)methyl)-4′-fluoro-5-((2-imino-3-methyl-2,3-dihydro-1H-imidazol-1-yl)methyl)-2′-methyl-[1,1′-biphenyl]-3-carboxamide], 210 pM. Same read-out and setting: then `Cn1ccn(Cc2cc(C(=O)NCc3ccc(Cl)c(Cl)c3)cc(-c3cccc4c3OC(F)(F)O4)c2)c1=N` [Example 168, N-(3,4-Dichlorobenzyl)-3-(2,2-difluorobenzo[d][1,3]dioxol-4-yl)-5-((2-imino-3-methyl-2,3-dihydro-1H-imidazol-1-yl)methyl)benzamide], with 27000 pM. As for `COc1cccc(-c2cc(Cn3ccn(C)c3=N)cc(C(=O)NCc3ccc(Cl)c(Cl)c3)c2)n1` [Example 169, N-(3,4-Dichlorobenzyl)-3-((2-imino-3-methyl-2,3-dihydro-1H-imidazol-1-yl)methyl)-5-(6-methoxypyridin-2-yl)benzamide], the affinity corresponds to a Ki of 23000 pM. Take `Cc1cc([C@H](C)NC(=O)c2cc(Cn3ccn(C)c3=N)cc(OC(F)(F)F)c2)ccc1F` [Example 170, (S)—N-(1-(4-Fluoro-3-methylphenyl)ethyl)-3-((2-imino-3-methyl-2,3-dihydro-1H-imidazol-1-yl)methyl)-5-(trifluoromethoxy)benzamide]: the Ki under setting [2] amounted to 220 pM. Turning to `Cc1cc(F)ccc1-c1cc(Cn2ccn(C)c2=N)cc(C(=O)N[C@H](c2ccc(F)c(C)n2)C2CC2)c1` [Example 173, (S)-1N-(Cyclopropyl(5-fluoro-6-methylpyridin-2-yl)methyl)-4′-fluoro-5-((2-imino-3-methyl-2,3-dihydro-1H-imidazol-1-yl)methyl)-2′-methyl-[1,1′-biphenyl]-3-carboxamide], under setting [1], the Ki came to 890 pM. As to `CCOc1cc(Cn2ccn(C)c2=N)cc(C(=O)N[C@@H](C)c2ccc(F)c(C)c2)c1` [Example 176, (S)-3-Ethoxy-N-(1-(4-fluoro-3-methylphenyl)ethyl)-5-((2-imino-3-methyl-2,3-dihydro-1H-imidazol-1-yl)methyl)benzamide], the Ki under setting [1] worked out at 500 pM. Take `COc1cc(CNC(=O)c2cc(Cn3ccn(C)c3=N)cc(OCC3CC3)c2)cc(OC)c1` [Example 178, 3-(Cyclopropylmethoxy)-N-(3,5-dimethoxybenzyl)-5-((2-imino-3-methyl-2,3-dihydro-1H-imidazol-1-yl)methyl)benzamide]: the Ki under setting [1] was 3300 pM. Same read-out and setting: then `CCOc1cc(Cn2ccn(C)c2=N)cc(C(=O)N[C@H](c2ccc(F)c(C)c2)C2CC2)c1` [Example 180, (S)—N-(Cyclopropyl(4-fluoro-3-methylphenyl)methyl)-3-methoxy-5-((2-imino-3-methyl-2,3-dihydro-1-imidazol-1-yl)methyl)benzamide], with 130 pM. As to `Cc1cc([C@H](C)NC(=O)c2cc(Cn3ccn(C)c3=N)cc(OCC3CC3)c2)ccc1F` [Example 181, (S)-3-(Cyclopropylmethoxy)-N-(1-(4-fluoro-3-methylphenyl)ethyl)-5-((2-imino-3-methyl-2,3-dihydro-1H-imidazol-1-yl)methyl)benzamide], the Ki under setting [1] was 350 pM.

Take `Cc1ccnc([C@@H](NC(=O)c2cc(Cn3ccn(C)c3=N)cc(OCC3CC3)c2)C2CC2)c1` [Example 182, (S)—N-(Cyclopropyl(4-methylpyridin-2-yl)methyl)-3-(cyclopropylmethoxy)-5-((2-imino-3-methyl-2,3-dihydro-1H-imidazol-1-yl)methyl)benzamide]: the Ki under setting [1] came out at 1000 pM.

As to `CCOc1cc(Cn2ccn(C)c2=N)cc(C(=O)NCc2ccc(Cl)c(C)c2)c1` [Example 183, N-(4-Chloro-3-methylbenzyl)-3-ethoxy-5-((2-imino-3-methyl-2,3-dihydro-1H-imidazol-1-yl)methyl)benzamide], the Ki under setting [1] came to 710 pM. For the compound `COc1cc(-c2cc(Cn3ccn(C)c3=N)cc(C(=O)NCc3ccc(Cl)c(Cl)c3)c2)c(F)cn1` [Example 184, N-(3,4-dichlorobenzyl)-3-(5-fluoro-2-methoxypyridin-4-yl)-5-((2-imino-3-methyl-2,3-dihydro-1H-imidazol-1-yl)methyl)benzamide], under setting [1], the Ki was found to be 560 pM. For the compound `CCn1cc(-c2cc(Cn3ccn(C4CC4)c3=N)cc(C(=O)NCc3ccc(F)c(C)c3)c2)c(C(F)(F)F)n1` [Example 197, 3-((3-Cyclopropyl-2-imino-2,3-dihydro-1H-imidazol-1-yl)methyl)-5-(1-ethyl-3-(trifluoromethyl)-1H-pyrazol-4-yl)-N-(4-fluoro-3-methylbenzyl)benzamide], under setting [2], the Ki was below 100 pM. As to `Cc1cc([C@@H](NC(=O)c2cc(Cn3ccn(C)c3=N)cc(N3CCCC3)c2)C2CC2)ccc1F` [Example 206, (S)—N-(Cyclopropyl(4-fluoro-3-methylphenyl)methyl)-3-((2-imino-3-methyl-2,3-dihydro-1H-imidazol-1-yl)methyl)-5-(pyrrolidin-1-yl)benzamide], the Ki under setting [1] was 340 pM. As for `Cc1cc([C@@H](NC(=O)c2cc(Cn3ccn(C)c3=N)cc(N3CCCC3)c2)C2CC2)ncc1F` [Example 208, (S)—N-(Cyclopropyl(5-fluoro-4-methylpyridin-2-yl)methyl)-3-((2-imino-3-methyl-2,3-dihydro-1H-imidazol-1-yl)methyl)-5-(pyrrolidin-1-yl)benzamide], under setting [1], the inhibition constant Ki was 590 pM.

Turning to `Cc1cc([C@@H](NC(=O)c2cc(Cn3ccn(C)c3=N)cc(C3(C(F)(F)F)CC3)c2)C2CC2)ncc1F` [Example 218, (S)—N-(cyclopropyl(5-fluoro-4-methylpyridin-2-yl)methyl)-3-((2-imino-3-methyl-2,3-dihydro-1H-imidazol-1-yl)methyl)-5-(1-(trifluoromethyl)cyclopropyl)benzamide], the Ki under setting [1] was below 100 pM. Consider `Cc1cc([C@@H](NC(=O)c2cc(Cn3ccn(C)c3=N)cc(N3CCC[C@@H]3C(F)(F)F)c2)C2CC2)ccc1F` [Example 222, N—((S)-Cyclopropyl(4-fluoro-3-methylphenyl)methyl)-3-((2-imino-3-methyl-2,3-dihydro-1H-imidazol-1-yl)methyl)-5-((R)-2-(trifluoromethyl)pyrrolidin-1-yl)benzamide], for which the Ki under setting [1] was 330 pM. The same measure, in the same setting: then `Cc1cc([C@@H](NC(=O)c2cc(Cn3ccn(C)c3=N)cc(N3CCC[C@H]3C(F)(F)F)c2)C2CC2)ccc1F` [Example 223], with 1300 pM.

The values above are taken from patent US10844044B2 (Vanderbilt University, priority 2018, dated 2020).
